From publication PMC11873239, “A covalent chemical probe for Chikungunya nsP2 cysteine protease with antialphaviral activity and proteome-wide selectivity” (Scientific Reports, 2025)
Where two headings read alike, the source gives them in different places.

What was measured:
Format in all cases: binding
[1] = biological target: HEK293 cell lysate proteins (Homo sapiens, UniProt A8K2U0)
[2] = biological target: HEK293 cell lysate proteins (Homo sapiens, UniProt P04040)
[3] = biological target: HEK293 cell lysate proteins (Homo sapiens, UniProt P06702)
Chain of HEK293 cell lysate proteins (Homo sapiens, UniProt P06702) (P06702 whole entry): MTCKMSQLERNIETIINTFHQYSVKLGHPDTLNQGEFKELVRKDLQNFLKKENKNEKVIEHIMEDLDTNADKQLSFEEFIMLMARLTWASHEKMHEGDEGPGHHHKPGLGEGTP

[4] = biological target: HEK293 cell lysate proteins (Homo sapiens, UniProt P11586)
[5] = biological target: HEK293 cell lysate proteins (Homo sapiens, UniProt P14923)
[6] = biological target: HEK293 cell lysate proteins (Homo sapiens, UniProt P31151)
Chain of HEK293 cell lysate proteins (Homo sapiens, UniProt P31151) (P31151 whole entry): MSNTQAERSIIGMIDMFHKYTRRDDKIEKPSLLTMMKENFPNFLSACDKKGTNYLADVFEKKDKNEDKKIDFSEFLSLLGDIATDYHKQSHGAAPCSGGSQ

[7] = biological target: HEK293 cell lysate proteins (Homo sapiens, UniProt P31944)
Chain of HEK293 cell lysate proteins (Homo sapiens, UniProt P31944) (P31944 6-242): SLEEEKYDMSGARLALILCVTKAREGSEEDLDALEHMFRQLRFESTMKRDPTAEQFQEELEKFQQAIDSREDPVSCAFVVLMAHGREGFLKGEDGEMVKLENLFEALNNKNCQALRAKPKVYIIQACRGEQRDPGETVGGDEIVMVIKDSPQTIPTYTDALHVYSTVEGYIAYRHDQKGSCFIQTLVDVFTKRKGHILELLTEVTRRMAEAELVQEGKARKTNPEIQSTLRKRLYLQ

[8] = biological target: HEK293 cell lysate proteins (Homo sapiens, UniProt P32119)
[9] = biological target: HEK293 cell lysate proteins (Homo sapiens, UniProt P61626)
Chain of HEK293 cell lysate proteins (Homo sapiens, UniProt P61626) (P61626 19-148): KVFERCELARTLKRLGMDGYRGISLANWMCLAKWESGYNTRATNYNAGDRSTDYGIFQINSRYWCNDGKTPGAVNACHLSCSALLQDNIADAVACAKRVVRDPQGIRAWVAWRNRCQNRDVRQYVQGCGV

[10] = biological target: HEK293 cell lysate proteins (Homo sapiens, UniProt P84103)
[11] = biological target: HEK293 cell lysate proteins (Homo sapiens, UniProt Q02413)
[12] = biological target: HEK293 cell lysate proteins (Homo sapiens, UniProt Q12872)
[13] = biological target: HEK293 cell lysate proteins (Homo sapiens, UniProt Q13428)
[14] = biological target: HEK293 cell lysate proteins (Homo sapiens, UniProt Q13867)
Chain of HEK293 cell lysate proteins (Homo sapiens, UniProt Q13867) (Q13867 whole entry): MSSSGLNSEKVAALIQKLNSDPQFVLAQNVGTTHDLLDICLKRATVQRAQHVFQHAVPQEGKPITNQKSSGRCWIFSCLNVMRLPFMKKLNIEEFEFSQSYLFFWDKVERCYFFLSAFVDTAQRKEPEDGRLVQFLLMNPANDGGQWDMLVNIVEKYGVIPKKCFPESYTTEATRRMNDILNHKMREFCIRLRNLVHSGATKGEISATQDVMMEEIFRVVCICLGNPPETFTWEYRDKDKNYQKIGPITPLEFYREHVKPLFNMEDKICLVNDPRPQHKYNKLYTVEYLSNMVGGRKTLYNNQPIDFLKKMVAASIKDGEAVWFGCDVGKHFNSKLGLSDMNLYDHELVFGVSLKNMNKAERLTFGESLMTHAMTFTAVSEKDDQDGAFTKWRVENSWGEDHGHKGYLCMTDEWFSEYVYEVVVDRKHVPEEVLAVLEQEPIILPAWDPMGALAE

[15] = biological target: HEK293 cell lysate proteins (Homo sapiens, UniProt Q15424)
[16] = biological target: HEK293 cell lysate proteins (Homo sapiens, UniProt Q6ZVX7)
[17] = biological target: HEK293 cell lysate proteins and CHIKV nsP2 (Homo sapiens, UniProt O15042)
[18] = biological target: HEK293 cell lysate proteins and CHIKV nsP2 (Homo sapiens, UniProt O43290)
[19] = biological target: HEK293 cell lysate proteins and CHIKV nsP2 (Homo sapiens, UniProt P04040)
[20] = biological target: HEK293 cell lysate proteins and CHIKV nsP2 (Homo sapiens, UniProt P05089)
Chain of HEK293 cell lysate proteins and CHIKV nsP2 (Homo sapiens, UniProt P05089) (P05089 whole entry): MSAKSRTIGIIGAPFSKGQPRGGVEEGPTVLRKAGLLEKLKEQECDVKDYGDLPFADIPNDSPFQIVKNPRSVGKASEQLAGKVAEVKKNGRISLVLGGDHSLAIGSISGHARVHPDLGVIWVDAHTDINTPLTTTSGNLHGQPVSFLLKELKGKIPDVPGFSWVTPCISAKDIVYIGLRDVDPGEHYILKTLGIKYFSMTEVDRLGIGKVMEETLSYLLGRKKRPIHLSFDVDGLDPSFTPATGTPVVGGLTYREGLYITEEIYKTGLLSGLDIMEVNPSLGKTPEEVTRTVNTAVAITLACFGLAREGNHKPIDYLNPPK

[21] = biological target: HEK293 cell lysate proteins and CHIKV nsP2 (Homo sapiens, UniProt P05109)
[22] = biological target: HEK293 cell lysate proteins and CHIKV nsP2 (Homo sapiens, UniProt P06733)
Chain of HEK293 cell lysate proteins and CHIKV nsP2 (Homo sapiens, UniProt P06733) (P06733 whole entry): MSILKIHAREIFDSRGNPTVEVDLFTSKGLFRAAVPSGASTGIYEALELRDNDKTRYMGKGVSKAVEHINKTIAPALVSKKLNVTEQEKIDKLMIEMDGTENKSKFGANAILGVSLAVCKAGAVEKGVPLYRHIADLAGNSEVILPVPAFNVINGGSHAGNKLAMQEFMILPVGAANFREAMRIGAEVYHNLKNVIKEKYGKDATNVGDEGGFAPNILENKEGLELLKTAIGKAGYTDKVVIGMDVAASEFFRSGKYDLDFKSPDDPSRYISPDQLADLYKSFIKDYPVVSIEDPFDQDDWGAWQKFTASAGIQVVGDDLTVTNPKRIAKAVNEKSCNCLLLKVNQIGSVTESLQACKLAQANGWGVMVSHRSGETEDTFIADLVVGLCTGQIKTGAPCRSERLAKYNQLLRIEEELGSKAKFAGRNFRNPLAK

[23] = biological target: HEK293 cell lysate proteins and CHIKV nsP2 (Homo sapiens, UniProt P07355)
[24] = biological target: HEK293 cell lysate proteins and CHIKV nsP2 (Homo sapiens, UniProt P14923)
[25] = biological target: HEK293 cell lysate proteins and CHIKV nsP2 (Homo sapiens, UniProt P81605)
Chain of HEK293 cell lysate proteins and CHIKV nsP2 (Homo sapiens, UniProt P81605) (P81605 20-110): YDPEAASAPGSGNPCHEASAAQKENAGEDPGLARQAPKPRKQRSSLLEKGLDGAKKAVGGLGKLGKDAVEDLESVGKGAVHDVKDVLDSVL

[26] = biological target: HEK293 cell lysate proteins and CHIKV nsP2 (Homo sapiens, UniProt Q00610)
[27] = biological target: HEK293 cell lysate proteins and CHIKV nsP2 (Homo sapiens, UniProt Q14562)
Chain of HEK293 cell lysate proteins and CHIKV nsP2 (Homo sapiens, UniProt Q14562) (Q14562 whole entry): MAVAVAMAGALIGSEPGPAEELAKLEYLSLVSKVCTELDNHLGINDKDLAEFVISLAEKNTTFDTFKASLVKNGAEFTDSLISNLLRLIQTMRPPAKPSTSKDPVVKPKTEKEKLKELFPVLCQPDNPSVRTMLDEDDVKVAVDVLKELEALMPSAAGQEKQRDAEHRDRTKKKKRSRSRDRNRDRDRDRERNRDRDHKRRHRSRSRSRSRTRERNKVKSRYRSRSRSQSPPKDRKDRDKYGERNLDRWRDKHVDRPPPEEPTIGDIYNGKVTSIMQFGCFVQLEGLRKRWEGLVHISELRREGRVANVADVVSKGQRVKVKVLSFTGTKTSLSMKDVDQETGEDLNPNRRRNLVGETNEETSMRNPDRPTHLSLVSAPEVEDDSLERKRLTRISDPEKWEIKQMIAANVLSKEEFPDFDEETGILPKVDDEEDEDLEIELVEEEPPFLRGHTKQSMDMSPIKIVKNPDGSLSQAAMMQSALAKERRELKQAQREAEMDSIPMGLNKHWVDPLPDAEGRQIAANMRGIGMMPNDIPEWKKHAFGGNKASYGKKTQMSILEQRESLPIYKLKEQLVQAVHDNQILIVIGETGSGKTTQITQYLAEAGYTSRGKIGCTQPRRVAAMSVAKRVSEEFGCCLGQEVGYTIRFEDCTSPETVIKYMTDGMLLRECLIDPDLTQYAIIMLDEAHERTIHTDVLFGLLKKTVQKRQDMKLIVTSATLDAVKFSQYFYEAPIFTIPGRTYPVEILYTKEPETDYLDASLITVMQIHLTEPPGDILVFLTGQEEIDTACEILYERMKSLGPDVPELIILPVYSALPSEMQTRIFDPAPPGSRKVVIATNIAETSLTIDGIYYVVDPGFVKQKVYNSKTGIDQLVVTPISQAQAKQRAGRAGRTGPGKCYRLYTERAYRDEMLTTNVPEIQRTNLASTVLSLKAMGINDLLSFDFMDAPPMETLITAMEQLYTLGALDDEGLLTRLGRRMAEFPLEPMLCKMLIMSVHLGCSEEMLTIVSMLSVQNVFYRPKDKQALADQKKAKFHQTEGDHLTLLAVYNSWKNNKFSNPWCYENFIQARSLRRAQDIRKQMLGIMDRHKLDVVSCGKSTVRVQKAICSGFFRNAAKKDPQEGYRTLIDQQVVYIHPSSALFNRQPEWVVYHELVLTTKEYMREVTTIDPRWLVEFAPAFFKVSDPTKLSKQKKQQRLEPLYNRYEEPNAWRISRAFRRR

[28] = biological target: HEK293 cell lysate proteins and CHIKV nsP2 (Homo sapiens, UniProt Q6ZVX7)
[29] = biological target: HEK293 cell lysate proteins and CHIKV nsP2 (Homo sapiens, UniProt Q7L014)
[30] = biological target: HEK293 cell lysate proteins and CHIKV nsP2 (Homo sapiens, UniProt Q8NE71)
Chain of HEK293 cell lysate proteins and CHIKV nsP2 (Homo sapiens, UniProt Q8NE71) (Q8NE71 whole entry): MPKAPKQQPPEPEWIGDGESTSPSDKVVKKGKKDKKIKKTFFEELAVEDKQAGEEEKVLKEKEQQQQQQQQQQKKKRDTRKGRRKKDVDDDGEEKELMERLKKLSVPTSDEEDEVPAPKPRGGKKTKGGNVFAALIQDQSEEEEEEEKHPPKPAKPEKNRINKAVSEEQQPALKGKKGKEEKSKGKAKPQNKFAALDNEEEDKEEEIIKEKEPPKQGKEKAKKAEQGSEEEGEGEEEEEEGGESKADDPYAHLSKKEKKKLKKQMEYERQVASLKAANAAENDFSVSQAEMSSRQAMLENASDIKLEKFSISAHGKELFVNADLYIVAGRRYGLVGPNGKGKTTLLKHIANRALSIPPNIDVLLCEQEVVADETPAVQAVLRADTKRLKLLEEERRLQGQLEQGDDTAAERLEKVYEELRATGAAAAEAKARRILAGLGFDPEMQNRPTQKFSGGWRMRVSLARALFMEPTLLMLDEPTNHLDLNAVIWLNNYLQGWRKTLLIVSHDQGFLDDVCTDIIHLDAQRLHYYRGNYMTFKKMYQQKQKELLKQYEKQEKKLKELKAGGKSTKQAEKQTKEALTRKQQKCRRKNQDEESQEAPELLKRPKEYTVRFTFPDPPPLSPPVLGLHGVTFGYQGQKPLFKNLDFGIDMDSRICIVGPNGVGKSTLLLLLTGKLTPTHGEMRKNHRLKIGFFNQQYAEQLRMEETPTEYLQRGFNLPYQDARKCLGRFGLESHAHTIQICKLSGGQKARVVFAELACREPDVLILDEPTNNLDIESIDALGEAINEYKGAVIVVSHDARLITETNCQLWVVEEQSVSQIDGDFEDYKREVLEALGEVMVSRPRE

[31] = biological target: HEK293 cell lysate proteins and CHIKV nsP2 (Homo sapiens, UniProt Q8NFC6)
[32] = biological target: HEK293 cell lysate proteins and CHIKV nsP2 (Homo sapiens, UniProt Q96P63)
Chain of HEK293 cell lysate proteins and CHIKV nsP2 (Homo sapiens, UniProt Q96P63) (Q96P63 whole entry): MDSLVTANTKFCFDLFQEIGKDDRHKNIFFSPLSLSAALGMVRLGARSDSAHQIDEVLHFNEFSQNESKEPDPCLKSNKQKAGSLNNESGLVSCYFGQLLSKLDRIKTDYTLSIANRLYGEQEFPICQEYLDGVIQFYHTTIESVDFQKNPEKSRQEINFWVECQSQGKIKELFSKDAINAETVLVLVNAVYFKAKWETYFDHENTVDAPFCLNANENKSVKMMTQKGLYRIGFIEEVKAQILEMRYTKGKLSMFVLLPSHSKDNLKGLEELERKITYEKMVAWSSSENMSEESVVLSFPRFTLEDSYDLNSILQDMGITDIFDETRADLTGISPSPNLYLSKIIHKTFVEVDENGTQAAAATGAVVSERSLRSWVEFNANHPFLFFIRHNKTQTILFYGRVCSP

[33] = biological target: HEK293 cell lysate proteins and CHIKV nsP2 (Homo sapiens, UniProt Q96QA5)
Chain of HEK293 cell lysate proteins and CHIKV nsP2 (Homo sapiens, UniProt Q96QA5) (Q96QA5 whole entry): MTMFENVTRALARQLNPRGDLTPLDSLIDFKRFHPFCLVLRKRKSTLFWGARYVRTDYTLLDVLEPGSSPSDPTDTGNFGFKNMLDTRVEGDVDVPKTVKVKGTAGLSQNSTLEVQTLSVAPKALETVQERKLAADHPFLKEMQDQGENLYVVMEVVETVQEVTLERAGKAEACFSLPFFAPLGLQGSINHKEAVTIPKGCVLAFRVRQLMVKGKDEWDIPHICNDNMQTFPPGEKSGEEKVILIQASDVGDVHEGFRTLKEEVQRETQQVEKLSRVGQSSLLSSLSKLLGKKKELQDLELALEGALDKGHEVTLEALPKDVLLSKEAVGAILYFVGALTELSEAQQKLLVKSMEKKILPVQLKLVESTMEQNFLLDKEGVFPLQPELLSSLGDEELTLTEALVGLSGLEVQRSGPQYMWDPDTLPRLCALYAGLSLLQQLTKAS

[34] = biological target: HEK293 cell lysate proteins and CHIKV nsP2 (Homo sapiens, UniProt Q9BQG0)
[35] = biological target: HEK293 cell lysate proteins and CHIKV nsP2 (Homo sapiens, UniProt Q9HCY8)
Chain of HEK293 cell lysate proteins and CHIKV nsP2 (Homo sapiens, UniProt Q9HCY8) (Q9HCY8 whole entry): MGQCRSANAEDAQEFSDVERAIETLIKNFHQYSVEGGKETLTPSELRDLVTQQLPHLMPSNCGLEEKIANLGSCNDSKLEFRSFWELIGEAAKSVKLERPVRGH

[36] = biological target: HEK293 cell lysate proteins and CHIKV nsP2 (Homo sapiens, UniProt Q9UQ35)
[37] = biological target: HEK293 cell lysate proteins and CHIKV nsP2 (Homo sapiens, UniProt Q9Y520)
[38] = test system: HEK293 cell lysate proteins and CHIKV nsP2; details: protein nsP2 (nsP2_AA993-AA1333_Tags)

SMILES: C#CCOc1ccccc1-c1cc(C(=O)NC/C=C/S(C)(=O)=O)on1 [VS, (E)-N-(3-(methylsulfonyl)allyl)−3-(2-(prop-2-yn-1-yloxy)phenyl)isoxazole-5-carboxamide]
- Log2 fold change [1]: 1.10
- Log2 fold change [2]: 1.41
- Log2 fold change [3]: 1.63
- Log2 fold change [4]: -1.66
- Log2 fold change [5]: 1.97
- Log2 fold change [6]: -1.22
- Log2 fold change [7]: 1.29
- Log2 fold change [8]: 2.04
- Log2 fold change [9]: 1.36
- Log2 fold change [10]: 1.43
- Log2 fold change [11]: 1.36
- Log2 fold change [12]: -1.75
- Log2 fold change [13]: 1.02
- Log2 fold change [14]: 1.56
- Log2 fold change [15]: 1.46
- Log2 fold change [16]: 2.74
- Log2 fold change [17]: 0.06
- Log2 fold change [18]: 0.62
- Log2 fold change [19]: 1.41
- Log2 fold change [20]: 1.79
- Log2 fold change [21]: 1.58
- Log2 fold change [22]: 1.36
- Log2 fold change [23]: 1.52
- Log2 fold change [24]: 1.97
- Log2 fold change [25]: 1.36
- Log2 fold change [26]: 3.09
- Log2 fold change [27]: -0.65
- Log2 fold change [28]: 2.74
- Log2 fold change [29]: -0.13
- Log2 fold change [30]: -0.92
- Log2 fold change [31]: 0.23
- Log2 fold change [32]: 1.71
- Log2 fold change [33]: 1.51
- Log2 fold change [34]: -0.66
- Log2 fold change [35]: -1.35
- Log2 fold change [36]: 0.25
- Log2 fold change [37]: 0.50
- Log2 fold change [38]: 1.03
- Log2 fold change ([38]; sheet nsP2 spike): 7.13
